Patent US8431565B2 (priority 2007, dated 2013)

What was measured:
Male Sprague-Dawley rats = test: Complete Freund's Adjuvant (CFA) model of inflammatory pain, Randall-Selitto paw pressure; assay type: in vivo; conditions: rat, intraperitoneal
Description: Male Sprague-Dawley rats (Hsd:Sprague-Dawley®™ SD®™, Harlan, Indianapolis, Ind.) weighing 201±1 grams, were housed three per cage. Animals had free access to food and water and were maintained on a twelve hour light/dark schedule for the entire duration of the experiment. Approximately 12 hours prior to behavioral testing, animals were placed on wire mesh bottom cages with free access to water but no access to food. Test compounds were prepared in 50% PEG-400 (Sigma-Aldrich, cat. P3265). Indomethacin (Fluka, cat 57413) was suspended in 0.5% methylcellulose (Sigma-Aldrich, cat. 274429). Groups of eight animals were anesthetized with 2-3% isoflurane and local inflammation induced by 50 μl CFA (Sigma-Aldrich, cat F5881, Mycobacterium tuberculosis 1 mg/ml) injected subcutaneously into the plantar surface of the left paw.
Assessment of mechanical hyperalgesia: Baseline and post-treatment withdrawal thresholds to a noxious mechanical stimulus were measured using the Randall-Selitto paw pressure apparatus (Ugo Basile Analgesymeter, model 7200). […] Mechanical hyperalgesia was measured using the Randall-Selitto paw pressure device before CFA injection and after intraperitoneal (i.p.) compound administration over a twenty-four-hour period. The mean and standard error of the mean (SEM) were determined for the injured and normal paws for each treatment group.

rat CB2 receptor (rCB2) = molecular target: T1, rat CB2 receptor (rCB2) (Rattus norvegicus, UniProt Q9QZN9)
T1 sequence (Q9QZN9 1-360): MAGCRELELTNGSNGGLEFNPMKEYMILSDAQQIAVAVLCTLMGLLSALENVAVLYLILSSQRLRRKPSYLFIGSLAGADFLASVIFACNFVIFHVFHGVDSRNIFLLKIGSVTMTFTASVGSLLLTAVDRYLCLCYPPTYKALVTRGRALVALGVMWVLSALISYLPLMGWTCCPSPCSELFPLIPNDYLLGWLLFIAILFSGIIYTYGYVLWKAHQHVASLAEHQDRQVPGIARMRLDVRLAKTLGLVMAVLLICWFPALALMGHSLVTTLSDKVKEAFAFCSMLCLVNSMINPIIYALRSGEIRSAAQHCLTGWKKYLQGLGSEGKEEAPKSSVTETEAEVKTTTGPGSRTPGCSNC

[1] = molecular target: human CB1 receptor (hCB1) (Homo sapiens, UniProt P21554); assay type: cell-based
human CB1 receptor (hCB1), sequence (P21554 whole entry): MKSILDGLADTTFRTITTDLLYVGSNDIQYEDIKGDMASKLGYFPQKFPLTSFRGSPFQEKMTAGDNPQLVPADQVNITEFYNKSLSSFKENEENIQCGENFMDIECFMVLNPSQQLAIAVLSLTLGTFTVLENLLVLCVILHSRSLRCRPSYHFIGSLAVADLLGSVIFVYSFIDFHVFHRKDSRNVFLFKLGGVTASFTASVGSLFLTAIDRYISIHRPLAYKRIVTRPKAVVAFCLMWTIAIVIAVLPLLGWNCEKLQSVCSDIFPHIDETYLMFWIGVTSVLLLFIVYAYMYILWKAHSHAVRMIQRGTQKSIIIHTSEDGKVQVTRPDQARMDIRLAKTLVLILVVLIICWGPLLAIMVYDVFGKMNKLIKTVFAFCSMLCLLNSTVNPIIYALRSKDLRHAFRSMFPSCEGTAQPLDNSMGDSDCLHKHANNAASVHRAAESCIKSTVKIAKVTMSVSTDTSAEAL

rats [2] = test: Spinal nerve ligation (SNL) model of neuropathic pain; assay type: in vivo; conditions: rat; oral 3, 10 and 30 mg/kg; FIG. 4
Description: The SNL model (Kim and Chung 1992) was used to induce chronic neuropathic pain in rats. The rats were anesthetized with isoflurane, the left L5 transverse process was removed, and the L5 and L6 spinal nerves were tightly ligated with 6-0 silk suture. The wound was then closed with internal sutures and external staples. Following at least seven days post SNL, baseline, post-injury and post-treatment values for non-noxious mechanical sensitivity were evaluated using eight Semmes-Weinstein filaments (Stoelting, Wood Dale, Ill., USA) with varying stiffness (0.4, 0.7, 1.2, 2.0, 3.6, 5.5, 8.5, and 15 g) according to the up-down method (Chaplan et al. 1994). Animals were placed on a perforated metallic platform and allowed to acclimate to their surroundings for a minimum of thirty minutes before testing. The mean and standard error of the mean (SEM) were determined for the injured paw in each treatment group. Since this stimulus is normally not considered painful, significant injury-induced increases in responsiveness in this test are interpreted as a measure of mechanical allodynia. The dose which elicited 50% attenuation of mechanical hypersensitivity (ED50) was determined using linear regression analysis. Results obtained after oral administration of compound 317 at 3, 10 and 30 mg/kg and with compound 366 at 1, 3 and 10 mg/kg are shown in FIG. 4.

rats [3] = test: Carrageenan model of acute inflammation; assay type: in vivo; conditions: rat
Male ICR mice = test: Inhibition of acetic acid-induced writhing; assay type: in vivo, mouse; conditions: subcutaneous 3, 10 and 30 mg/kg, FIG. 2
Text: 12: 525-562; Ramabadran and Bansinath (1986) Pharm. Res. 3: 263-270]. Intraperitoneal administration of dilute acetic acid solution causes a writhing behavior in mice. A writhe is defined as a contraction of the abdominal muscles accompanied by an extension of the forelimbs and elongation of the body. The number of writhes observed in the presence and absence of test compounds is counted to determine the analgesic activity of the compounds.
Male ICR mice, 20-40 grams in weight, were weighed and placed in individual observation chambers (usually a 4000 ml beaker) with a fine layer of rodent bedding at the bottom. To determine the activity and potency of test compounds, different doses of the compound solution or vehicle were injected subcutaneously in the back of the neck 30 minutes prior to administration of acetic acid solution. After administration of the compound or vehicle control, mice were returned to their individual observation chambers awaiting the intraperitoneal administration of acetic acid solution. Thirty minutes later, 10 ml/kg of a 0.6% (v/v) acetic acid solution was then injected into the right lower quadrant of the abdomen. […] The number of writhes was counted over a 15-min period starting from the time of acetic acid injection. Raw data were analyzed using a one-way ANOVA followed by Dunnett's post-tests. […]

| SMILES | EC50 (rat CB2 receptor (rCB2)) | EC50 [1] | response in the neuropathic pain model (rats [2]) | inhibition of acetic acid-induced writhing (Male ICR mice) | further results |
| --- | --- | --- | --- | --- | --- |
| CCS(=O)(=O)N1CCn2c(-c3ccccc3)nc(C(=O)N[C@H](C(=O)NC)C(C)(C)C)c2C1 [Compound 91, (S)—N-(3,3-dimethyl-1-(methylamino)-1-oxobutan-2-yl)-7-(ethylsulfonyl)-3-phenyl-5,6,7,8-tetrahydroimidazo[1,5-a]pyrazine-1-carboxamide] | 10 to 100 nM | – | – | – | side effects during the experiment (Male Sprague-Dawley rats; CFA experiment): No side effects were observed; effect on paw withdrawal threshold after intrapaw CFA (Male Sprague-Dawley rats; vs vehicle over twenty-four hours, FIG. 1): anti-hyperalgesic effect |
| CN1CCn2c(-c3ccc(Cl)cc3F)nc(C(=O)N3CCC4(CCNC4=O)CC3)c2C1 [Compound 220, 8-(3-(4-chloro-2-fluorophenyl)-7-methyl-5,6,7,8-tetrahydroimidazo[1,5-a]pyrazine-1-carbonyl)-2,8-diazaspiro[4.5]decan-1-one] | > 10000 nM | > 10000 nM | – | – | – |
| CNC(=O)[C@@H](NC(=O)c1nc(-c2ccccc2)n2c1CN(C)CCC2)C(C)(C)C [Compound 317, (S)—N-(3,3-dimethyl-1-(methylamino)-1-oxobutan-2-yl)-8-methyl-3-phenyl-6,7,8,9-tetrahydro-5H-imidazo[1,5-a][1,4]diazepine-1-carboxamide] | – | – | dose response in the neuropathic pain model | dose response in the inhibition of acetic acid-induced writhing | inhibition of carrageenan-induced hyper-sensitivity (rats [3]; sub-cutaneous 3, 10 and 30 mg/kg, FIG. 3A): dose response in the inhibition of carrageenan-induced hyper-sensitivity |
| CNC(=O)[C@@H](NC(=O)c1nc(-c2ccc3c(c2)OCCO3)n2c1CN(C)CCC2)C(C)(C)C [Compound 326, (S)-3-(2,3-dihydrobenzo[b][1,4]dioxin-6-yl)-N-(3,3-dimethyl-1-(methylamino)-1-oxobutan-2-yl)-8-methyl-6,7,8,9-tetrahydro-5H-imidazo[1,5-a][1,4]diazepine-1-carboxamide] | 10 to 100 nM | > 10000 nM | – | – | – |
| CNC(=O)[C@@H](NC(=O)c1nc(-c2ccc(Cl)cc2F)n2c1CN(C)CCC2)C(C)(C)C [Compound 366, (S)-3-(4-chloro-2-fluorophenyl)-N-(3,3-dimethyl-1-(methylamino)-1-oxobutan-2-yl)-8-methyl-6,7,8,9-tetrahydro-5H-imidazo[1,5-a][1,4]diazepine-1-carboxamide] | – | – | dose response in the neuropathic pain model | dose response in the inhibition of acetic acid-induced writhing | inhibition of carrageenan-induced hyper-sensitivity (rats [3]; oral 1, 3 and 10 mg/kg, FIG. 3B): dose response in the inhibition of carrageenan-induced hyper-sensitivity |
